Values after ≈ are worked out from the molar mass of the structure shown. Active and inactive are the calls of the source. The rule behind the calls is not given here.
Assays:
[1] = biological target: Rhodesain (Trypanosoma brucei rhodesiense, UniProt Q95PM0); assay: Inhibition of Trypanosoma brucei rhodesiense rhodesain
[2] = tested on: Trypanosoma brucei brucei; assay: Trypanocidal activity against Trypanosoma brucei brucei after 48 hrs; type: functional, organism-based
[3] = tested on: J774; assay: Cytotoxicity against J774.1 cell line after 48 hrs; type: functional, cell-based; settings: Mus musculus, J774, 48 h
[4] = tested on: J774; assay: Selectivity index, IC50 for J774.1/IC50 for Trypanosoma brucei brucei; type: functional
[5] = biological target: Rhodesain (Trypanosoma brucei rhodesiense) (UniProt Q95PM0); assay: Inhibition of Trypanosoma brucei rhodesiense rhodesain at 200 uM
[6] = biological target: Rhodesain (Trypanosoma brucei rhodesiense) (UniProt Q95PM0); assay: Inhibition of Trypanosoma brucei rhodesiense rhodesain at 140 uM

Chain of Rhodesain (Q95PM0 whole entry): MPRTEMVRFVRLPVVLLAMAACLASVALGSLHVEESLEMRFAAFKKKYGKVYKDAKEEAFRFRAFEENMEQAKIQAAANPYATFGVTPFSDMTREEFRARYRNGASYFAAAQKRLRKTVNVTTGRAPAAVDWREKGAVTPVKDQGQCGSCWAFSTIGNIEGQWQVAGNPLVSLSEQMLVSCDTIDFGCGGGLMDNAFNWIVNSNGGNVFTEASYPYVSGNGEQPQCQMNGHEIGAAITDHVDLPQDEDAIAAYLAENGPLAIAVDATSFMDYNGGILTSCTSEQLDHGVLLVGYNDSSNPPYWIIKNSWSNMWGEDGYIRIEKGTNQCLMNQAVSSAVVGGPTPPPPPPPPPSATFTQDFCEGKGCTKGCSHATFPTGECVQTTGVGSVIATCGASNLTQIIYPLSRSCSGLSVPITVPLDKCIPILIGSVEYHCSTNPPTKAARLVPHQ
Chain of Rhodesain (Trypanosoma brucei rhodesiense) (Q95PM0 1-450): as the sequence (Q95PM0 whole entry) above

inhibition [5] [%] | inhibition [6] | Compound | Ki [1] [µM] | IC50 [2] [µM] | IC50 [3] [µM] | Ratio IC50 [4] | MIC [2] [µM]
– | – | CCOC(=O)[C@@H]1[C@@H](C(=O)OCC)N1C(=O)[C@H]1CCCN(C(=O)[C@H](CC(C)C)NC(=O)OC(C)(C)C)C1 | 1 | > 100 | > 100 | – | –
– | – | CC(C)C[C@H](NC(=O)OC(C)(C)C)C(=O)N1CC[C@H]1C(=O)N1[C@H](C(=O)OCc2ccccc2)[C@H]1C(=O)OCc1ccccc1 | 0.8 | 30.8 | 37.2 | 1.2 | –
– | – | CC(C)(C)OC(=O)NCC(=O)N1CCC[C@H]1C(=O)N1[C@H](C(=O)O)[C@H]1C(=O)O | 0.9 | > 100 | > 100 | – | –
– | – | CC(C)(C)OC(=O)NCC(=O)N1CCC[C@@H](C(=O)N2[C@H](C(=O)OCc3ccccc3)[C@H]2C(=O)OCc2ccccc2)C1 | 1.1 | 36.4 | > 100 | >2.7 | –
– | – | CC(C)C[C@@H](NC(=O)OC(C)(C)C)C(=O)N1CCC[C@@H](C(=O)N2[C@H](C(=O)OCc3ccccc3)[C@H]2C(=O)OCc2ccccc2)C1 | 0.7 | 34 | > 100 | >2.9 | –
– | – | CC(C)C[C@H](NC(=O)OC(C)(C)C)C(=O)N1CCC[C@H](C(=O)N2[C@H](C(=O)OCc3ccccc3)[C@H]2C(=O)OCc2ccccc2)C1 | 0.6 | 25.6 | > 100 | >3.9 | –
– | – | CCOC(=O)[C@@H]1[C@@H](C(=O)OCC)N1C(=O)C1CCN(C(=O)[C@H](CC(C)C)NC(=O)OC(C)(C)C)CC1 | 1.4 | > 100 | > 100 | – | –
– | – | CCOC(=O)[C@H]1[C@H](C(=O)OCC)N1C(=O)[C@@H]1CCN1C(=O)[C@H](CC(C)C)NC(=O)OC(C)(C)C | 3.1 | 20.6 | > 100 | >4.8 | –
– | – | CC(C)C[C@@H](NC(=O)OC(C)(C)C)C(=O)N1CCC[C@H]1C(=O)N1[C@H](C(=O)OCc2ccccc2)[C@H]1C(=O)OCc1ccccc1 | 1.1 | 34.3 | > 100 | >2.9 | –
27.9 | – | N=C(N)c1ccc(OCCCCCOc2ccc(C(=N)N)cc2)cc1.O=S(=O)(O)CCO.O=S(=O)(O)CCO [PENTAMIDINE ISETHIONATE] | – | 0.0029 | 41.6 | 14345 | –
– | inactive | CC(C)(C)OC(=O)NCC(=O)N1CCC[C@@H]1C(=O)N1[C@H](C(=O)O)[C@H]1C(=O)O | – | > 100 | > 100 | – | –
– | – | CCOC(=O)[C@@H]1[C@@H](C(=O)OCC)N1C(=O)[C@@H]1CCCN1C(=O)[C@H](CC(C)C)NC(=O)OC(C)(C)C | 3.1 | > 100 | > 100 | – | –
– | – | C[C@@H](NC(=O)[C@H](Cc1ccccc1)NC(=O)OC(C)(C)C)C(=O)N1[C@H](C(=O)OCc2ccccc2)[C@H]1C(=O)OCc1ccccc1 | 1.2 | 30.5 | > 100 | >3.2 | –
31.5 | – | Cc1ccc(C(=O)Nc2ccc(S(=O)(=O)[O-])c3cc(S(=O)(=O)[O-])cc(S(=O)(=O)[O-])c23)cc1NC(=O)c1cccc(NC(=O)Nc2cccc(C(=O)Nc3cc(C(=O)Nc4ccc(S(=O)(=O)[O-])c5cc(S(=O)(=O)[O-])cc(S(=O)(=O)[O-])c45)ccc3C)c2)c1.[Na+].[Na+].[Na+].[Na+].[Na+].[Na+] [SURAMIN HEXASODIUM] | – | 0.31 | > 1000 | >3225 | 1
– | – | C[C@H](NC(=O)[C@H](Cc1ccccc1)NC(=O)OC(C)(C)C)C(=O)N1[C@H](C(=O)OCc2ccccc2)[C@H]1C(=O)OCc1ccccc1 | 1.9 | 26.7 | > 100 | >3.7 | –
– | inactive | CC(C)C[C@H](NC(=O)OC(C)(C)C)C(=O)N1CCC[C@H](C(=O)N2[C@H](C(=O)O)[C@H]2C(=O)O)C1 | – | – | – | – | –
– | – | CC1CS(=O)(=O)CCN1/N=C/c1ccc([N+](=O)[O-])o1 (stereo not given) [NIFURTIMOX] | – | 3.4 | > 200 | >58 | 200 (≈ 57.5 µg/mL)
– | – | CCOC(=O)[C@H]1[C@H](C(=O)OCC)N1C(=O)C1CCN(C(=O)[C@H](CC(C)C)NC(=O)OC(C)(C)C)CC1 | 3.3 | > 100 | > 100 | – | –
– | inactive | CC(C)C[C@H](NC(=O)OC(C)(C)C)C(=O)N1CCC(C(=O)N2[C@H](C(=O)O)[C@H]2C(=O)O)CC1 | – | – | – | – | –
– | inactive | CC(C)(C)OC(=O)NCC(=O)N1CCC[C@H](C(=O)N2[C@H](C(=O)O)[C@H]2C(=O)O)C1 | – | – | – | – | –
– | – | C[C@@H](NC(=O)[C@@H](Cc1ccccc1)NC(=O)OC(C)(C)C)C(=O)N1[C@H](C(=O)O)[C@H]1C(=O)O | 5 | – | – | – | –
– | – | CC(C)(C)OC(=O)NCC(=O)N1CCC[C@@H]1C(=O)N1[C@H](C(=O)OCc2ccccc2)[C@H]1C(=O)OCc1ccccc1 | 1.6 | > 100 | > 100 | – | –
– | – | CCOC(=O)[C@@H]1[C@@H](C(=O)OCC)N1C(=O)[C@@H]1CN1C(=O)[C@@H](CC(C)C)NC(=O)OC(C)(C)C | 1.6 | 28.3 | > 100 | >3.5 | –
– | inactive | CC(C)C[C@H](NC(=O)OC(C)(C)C)C(=O)N1CCC[C@H]1C(=O)N1[C@H](C(=O)O)[C@H]1C(=O)O | – | – | – | – | –
